Like-named read-outs stand apart in the source and are kept apart here.
How the values were obtained:
[1] = tested on: Colo205 colon cancer cell line; assay: MTT assay, 48 h continuous drug exposure, Colo205; type: cell-based, human
Protocol: (§1) Some of the C8-linked diaryl ether-PBD hybrids have been tested against eleven human tumour cell lines derived from seven cancer types (lung cancer, colon cancer, cervix, ovarian cancer, oral cancer, prostate cancer and breast cancer) as per Tata protocol as shown in Table 2. For each compound, dose response curves for each cell line were measured at a minimum of five concentrations at 10 fold dilutions. A protocol of 48 h continuous drug exposure was used and a MTT assay was used to estimate cell viability or growth. The percent of cell growth (GI50) compared with the control was calculated. Some of the compounds have been evaluated for their in vitro cytotoxicity in eleven cell lines from seven human cancer types. The results are expressed as GI50 determined relative to that of untreated control cells (Table-2).

[2] = tested on: duplex-form calf thymus DNA (CT-DNA); assay: Thermal denaturation studies with calf thymus DNA (DNA binding affinity); conditions: [PBD]:[DNA] molar ratio 1:5, CT-DNA 100 μM, ligand 20 μM, sodium phosphate buffer pH 7.00; for (ΔTm ° C.) after incubation at 37° C. for 0 h: 0 h at 37° C.; for (ΔTm ° C.) after incubation at 37° C. for 18 h: 18 h at 37° C.
Protocol: DNA Binding Affinity of Diaryl Ether Linked PBD Hybrids: Compounds have been subjected to thermal denaturation studies with duplex-form calf thymus DNA (CT-DNA) using a modification of a reported procedure (Newman, M. S. Carcinog-compr. Surv. 1976, 1, 203; ([…].; Loy, M.; Hoffman, Carcinog-compr. […] The DNA-PBD solutions have been incubated at 37° C. for 0 and 18 h prior to analysis. […] DNA helix→coil transition temperatures (Tm) have been obtained from the maxima in the d(A260)/dT derivative plots. […] The DNA binding activity for these novel C8-linked diaryl ether PBD hybrids has been examined by thermal denaturation studies using calf thymus (CT) DNA. […] The data for the compounds are included in Table 1 for comparison.

[3] = tested on: MCF7 breast cancer cell line; assay: MTT assay, 48 h continuous drug exposure, MCF7; type: cell-based, human
Protocol: as §1

[4] = tested on: A549 lung cancer cell line; assay: MTT assay, 48 h continuous drug exposure, A549; type: cell-based, human
Protocol: as §1

[5] = tested on: SiHa Cervix cancer cell line; assay: MTT assay, 48 h continuous drug exposure, SiHa; type: cell-based, human; conditions: Cervix cancer cell line, 48 h exposure, MTT, read-out: GI50 SiHa
Protocol: (§2) For each compound, dose response curves for each cell line were measured at a minimum of five concentrations at 10 fold dilutions. A protocol of 48 h continuous drug exposure was used and a MTT assay was used to estimate cell viability or growth. The percent of cell growth (GI50) compared with the control was calculated.

[6] = tested on: Hop62 lung cancer cell line; assay: MTT assay, 48 h continuous drug exposure, Hop62; type: cell-based, human; conditions: lung cancer cell line, 48 h exposure, MTT, read-out: GI50 Hop62
Protocol: as §2

[7] = tested on: A2780 ovarian cancer cell line; assay: MTT assay, 48 h continuous drug exposure, A2780; type: cell-based, human; conditions: ovarian cancer cell line, 48 h exposure, MTT, read-out: GI50 A2780
Protocol: as §2

[8] = tested on: Gurav oral cancer cell line; assay: MTT assay, 48 h continuous drug exposure, Gurav; type: cell-based, human; conditions: oral cancer cell line, 48 h exposure, MTT, read-out: GI50 Gurav
Protocol: as §2

[9] = tested on: DWD oral cancer cell line; assay: MTT assay, 48 h continuous drug exposure, DWD; type: cell-based, human; conditions: oral cancer cell line, 48 h exposure, MTT, read-out: GI50 DWD
Protocol: as §2

[10] = tested on: ZR-751 breast cancer cell line; assay: MTT assay, 48 h continuous drug exposure, ZR-751; type: cell-based, human; conditions: breast cancer cell line, 48 h exposure, MTT, read-out: GI50 ZR-751
Protocol: as §2

[11] = tested on: PC3 prostrate cancer cell line; assay: MTT assay, 48 h continuous drug exposure, PC3; type: cell-based, human; conditions: prostrate cancer cell line, 48 h exposure, MTT, read-out: GI50 PC3
Protocol: as §2

[12] = Homo sapiens, COLO 205, 48 h exposure
[13] = Homo sapiens, MCF7, 48 h exposure
[14] = Homo sapiens, A549, 48 h exposure

Row | Compound | (ΔTm ° C.) after incubation at 37° C. for 0 h [2] [°C] | (ΔTm ° C.) after incubation at 37° C. for 18 h [2] [°C] | GI50 [5] [µM] | GI50 [6] [µM] | GI50 [7] [µM] | GI50 ([1]; 48 h exposure) [µM] | GI50 [8] [µM] | GI50 ([3]; 48 h exposure) [µM] | GI50 [9] [µM] | GI50 [10] [µM] | GI50 [11] [µM] | GI50 ([4]; 48 h exposure) [µM] | further results
1 | COc1ccc(Oc2ccc(O)cc2N)cc1OC [5b, 3-amino-4-(3,4-dimethoxyphenoxy)phenol, reference compound] | 0.1 | 0.2 |  |  |  |  |  |  |  |  |  |  | GI50 [1, 12]: > 50 µM; GI50 [3, 13]: > 50 µM; GI50 [4, 14]: > 50 µM
2 | COc1ccc(Oc2ccc(C(=O)N3CCNCC3)cc2N)cc1OC [7b, [3-amino-4-(3,4-dimethoxyphenoxy)phenyl](piperazino)methanone, reference compound] | 0.2 | 0.5 |  |  |  |  |  |  |  |  |  |  | GI50 [1, 12]: > 50 µM; GI50 [3, 13]: > 50 µM; GI50 [4, 14]: > 50 µM
3 | COc1ccc(Oc2cc(OCCCCCOc3cc4c(cc3OC)C(=O)N3CCC[C@H]3C=N4)ccc2N)cc1 [10g, 7-Methoxy-(8-5-[4-amino-3-(4-methoxyphenoxy)phenoxy]pentyloxy)-(11aS)-1,2,3,11a-tetrahydro-5H-pyrrolo[2,1-c][1,4]benzodiazepin-5-one] | 2.9 | 3.6 | 1.56 | 2.1 | 2.3 | 1.5 | 2.43 | 2.3 | 2.4 | 3.1 | 2.84 | 2.84 | 
4 | COc1ccc(Oc2cc(OCCCCCOc3cc4c(cc3OC)C(=O)N3CCC[C@H]3C=N4)ccc2N)cc1OC [11g, 7-Methoxy-(8-5-[4-amino-3-(3,4-dimethoxyphenoxy)phenoxy]pentyloxy)-(11aS)-1,2,3,11a-tetrahydro-5H-pyrrolo[2,1-c][1,4]benzodiazepin-5-one] | 4.1 | 5.5 | 1.99 | 2.43 | 0.17 | 0.17 | 0.16 | 0.16 | 0.18 | 2.5 | 2.25 | 2.01 | 
5 | COc1cc2c(cc1OCCCCCOc1ccc(N)c(Oc3cc(OC)c(OC)c(OC)c3)c1)N=C[C@@H]1CCCN1C2=O [12g, 7-Methoxy-(8-5-[4-amino-3-(3,4,5-trimethoxyphenoxy)phenoxy]pentyloxy)-(11aS)-1,2,3,11a-tetrahydro-5H-pyrrolo[2,1-c][1,4]benzodiazepin-5-one] | 4.2 | 5.1 | 2.86 | 2.86 | 0.17 | 0.16 | 0.17 | 0.16 | 0.17 | 2.1 | 2.19 | 0.19 | 
6 | COc1ccc(Oc2ccc(OCCCCCOc3cc4c(cc3OC)C(=O)N3CCC[C@H]3C=N4)cc2I)cc1 [16c] | 3.6 | 4.6 | 1.42 | 1.5 | 2.3 | 2.22 | 2.23 | 2.1 | 2.6 | 3.3 | 2.12 | 2.7 | 
7 | COc1ccc(Oc2ccc(OCCCCCOc3cc4c(cc3OC)C(=O)N3CCC[C@H]3C=N4)cc2I)cc1OC [17c] | 3.9 | 4.8 | 2.35 | 1.12 | 2.8 | 2.26 | 2.27 | 2.6 | 2.7 | 3.8 | 2.56 | 2.45 | 
8 | COc1ccc(Oc2cc(OCCCCCOc3cc4c(cc3OC)C(=O)N3CCC[C@H]3C=N4)ccc2I)cc1OC [17g, 7-Methoxy-(8-5-[4-iodo-3-(3,4-dimethoxyphenoxy)phenoxy]pentyloxy)-(11aS)-1,2,3,11a-tetrahydro-5H-pyrrolo[2,1-c][1,4]benzodiazepin-5-one] | 4.3 | 5.1 | 0.19 | 2.25 | 0.18 | 2.2 | 0.19 | < 0.1 | 0.18 | 1.95 | 0.17 | 1.65 | 
9 | COc1cc2c(cc1OCCCCCOc1ccc(Oc3cc(OC)c(OC)c(OC)c3)c(I)c1)N=C[C@@H]1CCCN1C2=O [18c] | 4.6 | 5.5 | 2.22 | 2.01 | 3.1 | 3.12 | 2.68 | 3.6 | 3 | 2.78 | 2.57 | 3.04 | 
10 | COc1ccc(Oc2cccc(OCCCCCOc3cc4c(cc3OC)C(=O)N3CCC[C@H]3C=N4)c2[N+](=O)[O-])cc1 [19g, 7-Methoxy-(8-3-[3-(4-methoxyphenoxy)-2-nitrophenoxy]pentyloxy)-(11aS)-1,2,3,11a-tetrahydro-5H-pyrrolo[2,1-c][1,4]benzodiazepin-5-one] | 4.9 | 5.8 | 1.62 | 2.5 | 2.3 | 0.17 | 2.26 | 2 | 2.3 | 2.5 | 2.84 | 2.22 | 
11 | COc1ccc(Oc2ccc(OCCCCCOc3cc4c(cc3OC)C(=O)N3CCC[C@H]3C=N4)cc2[N+](=O)[O-])cc1OC [20c, 7-Methoxy-(8-3-[4-(3,4-dimethoxyphenoxy)-3-nitrophenoxy]pentyloxy)-(11aS)-1,2,3,11a-tetrahydro-5H-pyrrolo[2,1-c][1,4]benzodiazepin-5-one] | 4.9 | 5.6 | 2.47 | 0.14 | 0.14 | 0.13 | 1.24 | 0.14 | 0.13 | 0.13 | 0.16 | 0.15 | 
12 | COc1ccc(Oc2cccc(OCCCCCOc3cc4c(cc3OC)C(=O)N3CCC[C@H]3C=N4)c2[N+](=O)[O-])cc1OC [20g, 7-Methoxy-(8-3-[3-(3,4-dimethoxyphenoxy)-2-nitrophenoxy]pentyloxy)-(11aS)-1,2,3,11a-tetrahydro-5H-pyrrolo[2,1-c][1,4]benzodiazepin-5-one] | 4.5 | 6.0 | 2.5 | 0.19 | 2 | 0.17 | 0.16 | 2.1 | 0.18 | 0.19 | 2.25 | 0.19 | 
13 | COc1cccc2c1C(=O)c1c(O)c3c(c(O)c1C2=O)C[C@@](O)(C(=O)CO)C[C@@H]3O[C@H]1C[C@H](N)[C@H](O)[C@H](C)O1 [ADR, adriamycin, reference compound] |  |  |  |  |  |  |  |  |  |  |  |  | GI50 ([5]; Homo sapiens, SiHa): 0.16 µM; GI50 ([6]; Homo sapiens, HOP-62): 0.15 µM; GI50 ([7]; Homo sapiens, A2780): < 0.1 µM; GI50 [1, 12]: < 0.1 µM; GI50 ([8]; Homo sapiens, Gurav): < 0.1 µM; GI50 [3, 13]: 0.13 µM; GI50 ([9]; Homo sapiens): 0.12 µM; GI50 ([10]; Homo sapiens, ZR-75-1): 0.11 µM; GI50 ([11]; Homo sapiens): 0.16 µM; GI50 [4, 14]: < 0.1 µM

From patent US8809321B2, “Diaryl ether linked pyrrolo [2,1-c][1,4] benzodiazepine hybrids and process for the preparation thereof” (Council of Scientific and Industrial Research, priority 2011, dated 2014)
